Reference: a melting point compilation (Tetko et al.; mined from patent text by program, amines drawn as free bases though some values may be those of a salt)

Row | SMILES | melting point [°C]
1 | CCCCCCCCCCCCCCCCOC(=O)NCCN1CCCCC1 | 48
2 | CCN(C(=O)N1CCN(c2cc(OC)cc(OC)c2)CC1)c1nc(C)c(C)nc1OC | 78 to 80
3 | O=C(OCC1=CCN(Cc2c[nH]c3cccnc23)CC1)c1ccccc1 | 126
4 | C=CCOc1ccc2c(C)cc(=O)oc2c1C(=O)C=Cc1cccc(OC)c1 | 61 to 63
5 | O=C(O)c1ccc(OC(=O)c2ccc(O)c(C34CC5CC(CC(C5)C3)C4)c2)nc1 | 112 to 113
6 | COC(=O)C(O)C(O)C1CC1 (stereo unspecified) | 54 to 57
7 | Cc1cc2cc(NS(C)(=O)=O)cc(-c3cc(Cl)nc4ccccc34)c2n1CC(=O)O | 195 to 198
8 | C#CCOc1cc(C(=O)O)cc(N)c1-c1ccccc1 | 172 to 173
9 | O=c1[nH]c2cc(Cl)cc(Cl)c2c(=O)n1CCc1ccccc1 | 230 to 232
10 | Cc1cc(-c2ccc(S(N)(=O)=O)cc2)n(-c2ccc(S(C)=O)cc2)c1 (stereo unspecified) | 249 to 251
11 | CC(=O)c1ccc(N)c(C#N)c1 | 155 to 159
12 | COc1ccc(-c2cc(=S)ss2)cc1 | 110 to 111
13 | O=C(C1CN(S(=O)(=O)c2ccc3cc(Br)ccc3c2)CCN1C(=O)C1CCN(c2ccncc2)CC1)N1CCOCC1 (stereo unspecified) | 235 to 237
14 | Cc1cccc(-c2sc(N)nc2-c2ccnc(-c3ccc(OCC(N)=O)cc3)c2)n1 | 191
15 | COc1ccc(C2=NN(CC3CCCCC3)C(=O)[C@H]3CCCC[C@@H]23)cc1OC (relative stereo) | 137 to 139
16 | CC(C)c1ccc2c(c1)c(Sc1ccccc1C(C)C)c(CC(C)(C)C(=O)O)n2Cc1ccc(Cl)cc1 | 142 to 143
17 | CCOC(=O)CC(NC(=O)c1ccccc1)C(=O)c1ccco1 (stereo unspecified) | 75 to 76
18 | NCCc1ccc(C=Cc2ccccc2)cc1 | 141 to 156
19 | Cc1cccc(C)c1Nc1nc(-c2nc3ccc(C(F)(F)F)cc3[nH]2)cs1 | 250 to 251
20 | NC(=O)c1ncn2c1NCC=C2c1cccc(C(F)(F)F)c1 | 192 to 194

Next, values leading:

Row | melting point [°C] | SMILES
21 | 70 to 72 | O=Cc1ccc(S(=O)(=O)CCCl)cc1
22 | 152 | Cc1c(CO)nc(-c2ccc(C(F)(F)F)cc2)n1C
23 | 61 to 62 | CCOC(=O)CCN=c1sc2ccccc2s1
24 | 115 to 120 | Oc1ccc2c(c1)NCC2
25 | 65 to 66 | COc1ccccc1SCCCCCCCCCC(=O)O
26 | 134 to 136 | CCCc1nc(CO)c(C)[nH]1
27 | 78 to 79 | COC(=O)Cc1ccc(OCC(C)NCC(O)c2ccc(Cl)cc2)cc1 (stereo unspecified)
28 | 204 to 208 | CC1(C)Oc2ccc(C#N)cc2[C@@H](Nc2cc(Cl)ncn2)[C@@H]1O (relative stereo)
29 | 159 to 161 | Oc1ccc2c(c1)COc1c-2cc2ccc(O)cc2c1-c1ccsc1
30 | 110 to 112 | CCC(=O)C(CC(=O)c1ccccc1)C(O)=S (stereo unspecified)
31 | 171 to 172 | CC(C)n1c(C=O)c(-c2ccc(F)cc2)c(-c2ccccc2)c1C(=O)NCc1ccc(F)cc1
32 | 130 to 131 | COC1(c2cc(F)cc(Sc3ccc(/C(C)=N/O)c(OCc4ccccc4)c3)c2)CCOCC1
33 | 160 to 165 | CCOC(=O)c1cn(Cc2ccccc2)c2cc(C3CC3)nn2c1=O
34 | 64 to 65 | CCOC(=O)CNC(=O)N(CC(=O)OCC)Cc1ccccc1
35 | 140 to 141 | CCOc1cc(C(C)C)c2c(c1)S(=O)(=O)N(COC(=O)c1c(Cl)cccc1Cl)C2=O
36 | 175 to 178 | O=C(Nc1ccc(N2CCCCC2)cc1)N(C[C@H]1CC[C@H](CN(C(=O)Nc2ccc(N3CCCCC3)cc2)C2CCCCCC2)CC1)C1CCCCCC1
37 | 113 to 116 | COc1cc(N)ccc1NNC=O
38 | 48 to 50 | CCOC(=O)c1ncc(Cl)cc1F
39 | 240 | N#Cc1c(N2CCNCC2)c2cc(F)ccc2n(Cc2ccc(F)cc2)c1=O
40 | 126 | COC(=O)C1CC(O)CN1C(=O)c1cc(OC)c(OC)c(OC)c1 (stereo unspecified)
41 | 174 to 175 | C=CCn1c(=O)c(C(=O)OCC)c(O)c2cnc(-c3ccccc3)nc21
